# Assay results published in patent US5298494A, “Monosaccharides having anti-proliferation and anti-inflammatory activity, compositions and uses thereof” (Greenwich Pharmaceuticals Incorporated, priority 1993, dated 1994).
# Entries after “also recorded” stand apart in the source; their conditions may differ.
# Experiments:
# [1] = tested on: BUD-8 skin cells; assay: Morphological examination of BUD-8 cultures for compound-induced toxicity; assay type: cell-based, human
# Protocol: After 3 days of culture, 1 uCi ^3 H-thymidine was added in a 50 ul volume to each culture well of the microtiter plates. Eighteen hours later, each of the BUD-8 cultures was examined morphologically for evidence of compound-induced toxicity such as cell rounding or granularity. The thymidine-pulsed cells were then precipitated and the amount of ^3 H-thymidine incorporated was counted in a liquid scintillation counter.
# [2] = tested on: LTB4 production by BUD-8 skin cell fibroblasts; assay: LTB4 production by BUD-8 skin cell fibroblasts (radioimmunoassay); assay type: cell-based, human
# Protocol: The effect of the compound of the present invention on the proliferative capacity of human BUD-8 skin fibroblasts was measured with the use of a ^3 H-thymidine incorporation assay using culture conditions which were similar to those used for a Con-A blastogenesis assay, described previously. Cultured skin cells were detached from the surface of tissue culture flasks mechanically with a Teflon scraper. The cells were washed, resuspended in incubation medium and the viabilities were determined. These cells were then plated in triplicate at a density of 2×10^3 cells/0.1 ml/microtiter well for the proliferation assay and a density of 1×10^4 cells/0.1 ml/microtiter well for the assays to quantitate PGE2 and LTB4. To these cells was added incubation medium containing indomethacin to inhibit prostaglandin production, or nordihydroguaiaretic acid (NDGA) to inhibit leukotriene production (positive controls).
# After 18 hours of culture, samples of the BUD-8 skin cell supernatants were collected from one set of microtiter plates and frozen until assayed for PGE2 or for LTB4 content using the radioimmunoassays described below.
# Levels of LTB4 in aliquots of BUD-8 skin cell cultures supernatants were quantitated by radioimmunoassay (New England Nuclear). Briefly, into each polyproplyene tube were mixed 0.1 ml anti-LTB4, 0.1. ml ^3 H-LTB4 and 0.1 ml LTB4 standard or LTB4 containing sample. The BUD-8 skin cell culture supernatants were used directly in the radioimmunoassay. Tubes were refrigerated overnight. A charcoal solution (0.5 ml of 0.5% charcoal Norit A) was added and each tube was centrifuged. The radioactivity in the supernatant was then counted in a liquid scintillation counter.
structure (smiles),measurement,setting,value
CCCCCCCOCCCO[C@@H]1[C@H]2OC(C)(C)O[C@H]2O[C@@H]1[C@H](O)CO [IIg],"cell toxicity in BUD-8 cultures, in words",[1],Evidence of cell toxicity was observed at the two highest concentrations of compound tested; also recorded: Cell toxicity was again observed in cultures which included 300 and 750 ug/ml of the compound; also recorded: Compound induced cell toxicity was observed only at the highest dose level tested
same,concentrations with significantly decreased LTB4 levels,[2],1 to 100 µg/mL
same,LTB4 in supernatant (Table XIII),[2]; 1 ug/ml,32.2 ± 1.9 pg LTB4 /1000 ul supernatant
same,calculated LTB4 produced/10^5 BUD-8 cells,[2]; 1 ug/ml,619 pg per 10^5 cells
same,LTB4 in supernatant (Table XIII),[2]; 10 ug/ml,28.8 ± 1.4 pg LTB4 /1000 ul supernatant
same,calculated LTB4 produced/10^5 BUD-8 cells,[2]; 10 ug/ml,550 pg per 10^5 cells
same,LTB4 in supernatant (Table XIII),[2]; 25 ug/ml,23.7 ± 0.5 pg LTB4 /1000 ul supernatant
same,calculated LTB4 produced/10^5 BUD-8 cells,[2]; 25 ug/ml,447 pg per 10^5 cells
same,LTB4 in supernatant (Table XIII),[2]; 100 ug/ml,27.3 ± 2.6 pg LTB4 /1000 ul supernatant
same,calculated LTB4 produced/10^5 BUD-8 cells,[2]; 100 ug/ml,520 pg per 10^5 cells
same,LTB4 in supernatant (Table XIII),[2]; 300 ug/ml,24.5 ± 2.8 pg LTB4 /1000 ul supernatant
same,LTB4 in supernatant (Table XIII),[2]; 750 ug/ml,19.3 ± 1.9 pg LTB4 /1000 ul supernatant
same,inhibition at 1 µg/mL,"[2]; Homo sapiens, Fibroblast, 18 h, 1 ug/ml, read-out: % Effect on LTB4 production",17%
same,inhibition at 10 µg/mL,"[2]; Homo sapiens, Fibroblast, 18 h, 10 ug/ml, read-out: % Effect on LTB4 production",26%
same,inhibition at 25 µg/mL,"[2]; Homo sapiens, Fibroblast, 18 h, 25 ug/ml, read-out: % Effect on LTB4 production",39%
same,inhibition at 100 µg/mL,"[2]; Homo sapiens, Fibroblast, 18 h, 100 ug/ml, read-out: % Effect on LTB4 production",30%
same,inhibition at 300 µg/mL,"[2]; Homo sapiens, Fibroblast, 18 h, 300 ug/ml, read-out: % Effect on LTB4 production",37%
same,inhibition at 750 µg/mL,"[2]; Homo sapiens, Fibroblast, 18 h, 750 ug/ml, read-out: % Effect on LTB4 production",50%
